Data from article PMC3853718 (Journal of Translational Medicine, 2013).
Like-named read-outs stand apart in the source and are kept apart here. Marks after values point to notes of the source that are not given here.

Assay: Plasma pharmacokinetics after 2-hour IV infusion (LC-MS/MS)
Details: for AUC(0-inf): read-out: AUC(I) Mean; for AUC(0-t): read-out: AUC(tf) Mean

SMILES: CCc1cnn2c(NCc3ccc[n+]([O-])c3)cc(N3CCCC[C@H]3CCO)nc12 [dinaciclib]
- CL dependence on dose (0.33 to 14 mg/m^2): dose independent
- time at which Cmax was observed after the initiation of the infusion (2-hour IV administration): approximately 2 hours
- CL Mean (Day 1, 0.33 mg/m^2, N 1): 12.4 L/hr/m^2
- Vd Mean (Day 1, 0.33 mg/m^2, N 1): 35.9 L/m^2
- t½ Mean (Day 1, 0.33 mg/m^2, N 1): 2.01 h
- CL Mean (Day 1, 0.66 mg/m^2, N 1): 18.5 L/hr/m^2
- Cmax Mean (Day 1, 0.66 mg/m^2, N 1): 18.6 ng/mL
- Tmax Median (Day 1, 0.66 mg/m^2, N 1): 2 h
- Vd Mean (Day 1, 0.66 mg/m^2, N 1): 39.4 L/m^2
- t½ Mean (Day 1, 0.66 mg/m^2, N 1): 1.48 h
- Cmax Mean (Day 1, 1.32 mg/m^2, N 1): 63.8 ng/mL
- Tmax Median (Day 1, 1.32 mg/m^2, N 1): 2 h
- Cmax Mean (Day 1, 2.59 mg/m^2, N 3 (n=1)): 100^e ng/mL
- Tmax Median (Day 1, 2.59 mg/m^2, N 3 (n=1)): 1^e hr
- CL Mean (Day 1, 2.59 mg/m^2, N 3 (n=2)): 12.8^d L/hr/m^2
- Vd Mean (Day 1, 2.59 mg/m^2, N 3 (n=2)): 61.4^d L/m^2
- t½ Mean (Day 1, 2.59 mg/m^2, N 3 (n=2)): 3.28^d hr
- CL Mean (Day 1, 3.63 mg/m^2, N 7 (n=6)): 11.2^h L/hr/m^2
- Cmax Mean (Day 1, 3.63 mg/m^2, N 7 (n=6)): 210^i ng/mL
- Tmax Median (Day 1, 3.63 mg/m^2, N 7 (n=6)): 1^i hr
- Vd Mean (Day 1, 3.63 mg/m^2, N 7 (n=6)): 40.2^h L/m^2
- t½ Mean (Day 1, 3.63 mg/m^2, N 7 (n=6)): 2.9^h hr
- CL Mean (Day 1, 5.08 mg/m^2, N 3): 15.9 L/hr/m^2
- Vd Mean (Day 1, 5.08 mg/m^2, N 3): 72.7 L/m^2
- CL Mean (Day 1, 7.11 mg/m^2, N 7): 14.1 L/hr/m^2
- Vd Mean (Day 1, 7.11 mg/m^2, N 7): 61.7 L/m^2
- CL Mean (Day 1, 10 mg/m^2, N 3): 16.1 L/hr/m^2
- Vd Mean (Day 1, 10 mg/m^2, N 3): 68.5 L/m^2
- CL Mean (Day 1, 12 mg/m^2, N 11): 12.1 L/hr/m^2
- Vd Mean (Day 1, 12 mg/m^2, N 11): 55.4 L/m^2
- CL Mean (Day 1, 14 mg/m^2, N 5): 9.24 L/hr/m^2
- Vd Mean (Day 1, 14 mg/m^2, N 5): 39.8 L/m^2
- CL Mean (Day 15, 0.33 mg/m^2, N 1): 7.67 L/hr/m^2
- Vd Mean (Day 15, 0.33 mg/m^2, N 1): 51 L/m^2
- t½ Mean (Day 15, 0.33 mg/m^2, N 1): 4.61 h
- CL Mean (Day 15, 0.66 mg/m^2, N 1): 23.9 L/hr/m^2
- Vd Mean (Day 15, 0.66 mg/m^2, N 1): 57.6 L/m^2
- CL Mean (Day 15, 1.32 mg/m^2, N 1): 9.83 L/hr/m^2
- Vd Mean (Day 15, 1.32 mg/m^2, N 1): 48 L/m^2
- CL Mean (Day 15, 2.59 mg/m^2, N 3 (n=2)): 15.6^m L/hr/m^2
- Vd Mean (Day 15, 2.59 mg/m^2, N 3 (n=2)): 80.7^m L/m^2
- CL Mean (Day 15, 3.63 mg/m^2, N 6 (n=3)): 12.5° L/hr/m^2
- Vd Mean (Day 15, 3.63 mg/m^2, N 6 (n=3)): 71.6° L/m^2
- CL Mean (Day 15, 5.08 mg/m^2, N 2): 14.6 L/hr/m^2
- Cmax Mean (Day 15, 5.08 mg/m^2, N 2): 147 ng/mL
- Tmax Median (Day 15, 5.08 mg/m^2, N 2): 2 h
- Vd Mean (Day 15, 5.08 mg/m^2, N 2): 66.2 L/m^2
- t½ Mean (Day 15, 5.08 mg/m^2, N 2): 3.17 h
- Cmax Mean (Day 15, 7.11 mg/m^2, N 7): 306 ng/mL
- Tmax Median (Day 15, 7.11 mg/m^2, N 7): 1 h
- CL Mean (Day 15, 7.11 mg/m^2, N 7 (n=6)): 12.4^q L/hr/m^2
- Vd Mean (Day 15, 7.11 mg/m^2, N 7 (n=6)): 49.9^q L/m^2
- t½ Mean (Day 15, 7.11 mg/m^2, N 7 (n=6)): 2.71^q hr
- CL Mean (Day 15, 10 mg/m^2, N 3): 15.2 L/hr/m^2
- Cmax Mean (Day 15, 10 mg/m^2, N 3): 321 ng/mL
- Tmax Median (Day 15, 10 mg/m^2, N 3): 2 h
- Vd Mean (Day 15, 10 mg/m^2, N 3): 90.6 L/m^2
- t½ Mean (Day 15, 10 mg/m^2, N 3): 4.14 h
- CL Mean (Day 15, 12 mg/m^2, N 10): 11.5 L/hr/m^2
- Cmax Mean (Day 15, 12 mg/m^2, N 10): 526 ng/mL
- Tmax Median (Day 15, 12 mg/m^2, N 10): 2 h
- Vd Mean (Day 15, 12 mg/m^2, N 10): 49.3 L/m^2
- t½ Mean (Day 15, 12 mg/m^2, N 10): 3.16 h
- CL Mean (Day 15, 14 mg/m^2, N 4): 13.9 L/hr/m^2
- Cmax Mean (Day 15, 14 mg/m^2, N 4): 568 ng/mL
- Tmax Median (Day 15, 14 mg/m^2, N 4): 2 h
- Vd Mean (Day 15, 14 mg/m^2, N 4): 70.2 L/m^2
- t½ Mean (Day 15, 14 mg/m^2, N 4): 3.43 h
- accumulation in plasma (days 1, 8, 15 of cycle 1 and day 1 of cycle 2): does not accumulate in plasma
- AUC(0-inf) (Day 1, 0.33 mg/m^2, N 1): 26.7 ng·h/mL
- AUC(0-inf) (Day 1, 0.66 mg/m^2, N 1): 35.7 ng·h/mL
- AUC(0-inf) (Day 1, 2.59 mg/m^2, N 3 (n=2)): 214 ng·h/mL
- AUC(0-inf) (Day 1, 3.63 mg/m^2, N 7 (n=6)): 458 ng·h/mL
- AUC(0-inf) (Day 15, 5.08 mg/m^2, N 2): 354 ng·h/mL
- AUC(0-inf) (Day 15, 7.11 mg/m^2, N 7 (n=6)): 686 ng·h/mL
- AUC(0-inf) (Day 15, 10 mg/m^2, N 3): 722 ng·h/mL
- AUC(0-inf) (Day 15, 12 mg/m^2, N 10): 1270 ng·h/mL
- AUC(0-inf) (Day 15, 14 mg/m^2, N 4): 1180 ng·h/mL
- AUC(0-t) (Day 1, 0.33 mg/m^2, N 1): 26.1 ng·h/mL
- AUC(0-t) (Day 1, 0.66 mg/m^2, N 1): 35.3 ng·h/mL
- AUC(0-t) (Day 1, 1.32 mg/m^2, N 1): 112 ng·h/mL
- AUC(0-t) (Day 1, 2.59 mg/m^2, N 3): 809 ng·h/mL
- AUC(0-t) (Day 1, 3.63 mg/m^2, N 7): 465 ng·h/mL
- AUC(0-t) (Day 1, 10 mg/m^2, N 3): 681 ng·h/mL
